pIC50: −log10 of the molar value.
System: Influenza A virus
Experiment: Antiviral activity against drug-resistant Influenza A virus A/M2-V27A mutant assessed as viral growth inhibition
Format: functional, organism-based

Row | Structure (SMILES) | pIC50
1 | NC1CC[Si]2(CCCC2)CC1 | 4.02
2 | NC1CCC2(CCCC2)CC1 | 3.50
